Assay results as given in US20220257569A1, “INDOLE-OXADIAZOLE COMPOUNDS AND THEIR THERAPEUTIC USE” (THE GOVERNING COUNCIL OF THE UNIVERSITY OF TORONTO, priority 2018, published 2022).

Tests used:
cannabinoid CB1 receptor = biological target: T1, cannabinoid CB1 receptor (Homo sapiens, UniProt P21554); assay: PathHunter β-Arrestin assay (allosteric inhibition of agonist Emax); assay type: cell-based; conditions: HEK293 CB1 β-arrestin cells; concentration of modulator giving 50% reduction in agonist Emax; 60 min pre-incubation
T1 construct: host or cells: HEK293 CB1 β-arrestin cells
T1 sequence (P21554 whole entry): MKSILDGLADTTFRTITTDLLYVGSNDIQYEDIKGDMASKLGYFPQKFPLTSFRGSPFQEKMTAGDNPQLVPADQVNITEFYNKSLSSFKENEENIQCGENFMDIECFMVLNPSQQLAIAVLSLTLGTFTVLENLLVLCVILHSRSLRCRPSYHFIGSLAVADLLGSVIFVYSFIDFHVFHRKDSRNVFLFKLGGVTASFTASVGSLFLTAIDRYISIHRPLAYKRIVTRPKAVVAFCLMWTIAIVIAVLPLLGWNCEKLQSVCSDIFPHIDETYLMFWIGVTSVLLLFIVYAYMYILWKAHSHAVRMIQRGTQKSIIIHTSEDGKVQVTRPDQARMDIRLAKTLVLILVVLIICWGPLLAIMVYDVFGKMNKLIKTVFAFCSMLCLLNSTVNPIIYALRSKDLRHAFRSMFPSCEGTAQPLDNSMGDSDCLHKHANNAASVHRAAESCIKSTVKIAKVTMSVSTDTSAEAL
Excerpt: PathHunter™ enzyme fragment complementation is the most important method to measure β-arrestin recruitment. PathHunter™ β-Arrestin assays developed by DiscoveRX are revolutionary high-throughput screening assays for monitoring GPCR activation following ligand stimulation, without an imaging instrument, fluorescent protein tag, or radioactivity.
Instead, the assays detect GPCR activation through binding of β-arrestin to the expressed GPCR of interest, and measure the interaction of the two proteins using enzyme fragment complementation (EFC). The EFC approach offers a range of benefits for screening, including signal amplification and robust performance.
The larger portion of β-gal, termed EA for enzyme acceptor, is fused to the C-terminus of β-arrestin. The smaller, complementing fragment of β-gal, the ProLink™ tag, is expressed as a fusion protein with the GPCR of interest at the C-terminus. Upon activation, the GPCR is bound by β-arrestin. The interaction of β-arrestin and the GPCR forces the interaction of ProLink and EA, thus allowing complementation of the two fragments of β-gal and the formation of a functional enzyme capable of hydrolyzing substrate and generating a […] signal.
Using the PathHunter™ CB1 kit from DiscoveRX, a cannabinoid CB1 receptor agonist is added and activates the receptor, EA, which is fused to the C-terminus of β-arrestin, and then interacts with the ProLink™ tag which is fused to the CB1 receptor. This will result in the […] signal that is recorded by a luminescence plate reader. The […] signal is directly related to the activation of the receptor, therefore a higher concentration of agonist will yield a larger […] signal. The cannabinoid agonist is added in increasing concentrations to obtain an agonist dose response curve. With pre-incubation of a potential allosteric modulator, either an enhancement of agonist activity with an allosteric enhancer or a decrease in the maximal response of the agonist with an allosteric inhibitor is expected.
All raw data are obtained as luminescence (relative light units), and are normalised and presented as a percentage of the maximal response for the cannabinoid CB1 receptor agonist CP55,940 (2-[(1R,2R,5R)-5-hydroxy-2-(3-hydroxypropyl)cyclohexyl]-5-(2-methyloctan-2-yl)phenol).
The PathHunter™ β-Arrestin assay (from DiscoveRX, Fremont, USA) was performed as follows. HEK293 CB1 β-arrestin cells were plated 48 hours before use and incubated at 37° C., 5% CO2 in a humidified incubator. Test compounds were dissolved in dimethylsulfoxide (DMSO) and diluted in optimized cell culture (OCC, as supplied by DiscoveRX) media to the required concentrations. 5 μL of test compound or vehicle solution was added to each well and incubated for 60 minutes at 37° C., 5% CO2 in a humidified incubator. 5 μL of increasing concentrations of anandamide was added to each well followed by a 90-minute incubation at 37° C., 5% CO2 in a humidified incubator. 55 μL of detection reagent (as supplied by DiscoveRX) was then added, followed by a further 90 minute incubation at room temperature in the dark. Chemiluminescence, reported in relative light units (RLU—a dimensionless value, standardised as a % of maximum stimulation with anandamide), was measured on a standard luminescence plate reader.
Data were plotted as % of maximal stimulation (Emax) caused by agonist versus the logarithm of concentration of agonist, in the presence or absence of a fixed concentration of test compound (modulator) or vehicle. For example, stimulation in the presence of agonist alone will give a value for stimulation expressed in RLU, which can be expressed as a range from 0% (at lowest agonist concentration, e.g., 1 nM) to 100% (at the highest agonist concentration, e.g., 10 μM). […]

CCc1c(-c2nnc(SCCc3ccccc3)o2)[nH]c2ccc(Cl)cc12 [ABM329, 2-(5-Chloro-3-ethyl-1H-indol-2-yl)-5-(phenethylthio)-1,3,4-oxadiazole]
IC50 (cannabinoid CB1 receptor): 930 nM

CCc1c(-c2nnc(SCc3ccc(OC)cc3)o2)[nH]c2ccc(Cl)cc12 [ABM331, 2-(5-Chloro-3-ethyl-1H-indol-2-yl)-5-((4-methoxybenzyl)thio)-1,3,4-oxadiazole]
IC50 (cannabinoid CB1 receptor): 56 nM | melting point: 179 to 181 °C

Cc1c(-c2nnc(NCCc3ccccc3)o2)[nH]c2ccc(Cl)cc12 [ABM319, 5-(5-Chloro-3-methyl-1H-indol-2-yl)-N-phenethyl-1,3,4-oxadiazol-2-amine]
IC50 (cannabinoid CB1 receptor): 1 nM | melting point: 195 to 197 °C

CCc1c(-c2nnc(Nc3ccc(F)cc3)o2)[nH]c2ccc(Cl)cc12 [ABM335, 5-(5-Chloro-3-ethyl-1H-indol-2-yl)-N-(4-fluorophenyl)-1,3,4-oxadiazol-2-amine]
IC50 (cannabinoid CB1 receptor): 1 nM | melting point: 248 to 250 °C

Cc1c(-c2nnc(Nc3ccc(F)cc3)o2)[nH]c2ccc(Cl)cc12 [ABM337, 5-(5-Chloro-3-methyl-1H-indol-2-yl)-N-(4-fluorophenyl)-1,3,4-oxadiazol-2-amine]
IC50 (cannabinoid CB1 receptor): 1 nM | melting point: 256 to 258 °C

Clc1ccc2[nH]c(-c3nnc(Nc4ccccc4)o3)cc2c1 [ABM310, 5-(5-Chloro-1H-indol-2-yl)-N-phenyl-1,3,4-oxadiazol-2-amine]
IC50 (cannabinoid CB1 receptor): 3 nM | melting point: 272 to 274 °C

CCc1c(-c2nnc(NCc3ccccc3)o2)[nH]c2ccc(Cl)cc12 [ABM313, N-Benzyl-5-(5-chloro-3-ethyl-1H-indol-2-yl)-1,3,4-oxadiazol-2-amine]
IC50 (cannabinoid CB1 receptor): 12 nM | melting point: 216 to 218 °C

Cc1ccc(CSc2nnc(-c3[nH]c4ccc(Cl)cc4c3C)o2)cc1 [ABM324, 2-(5-Chloro-3-methyl-1H-indol-2-yl)-5-((4-methylbenzyl)thio)-1,3,4-oxadiazole]
melting point: 212 to 214 °C

CCc1c(-c2nnc(SCc3ccc(OC)cc3)o2)[nH]c2ccc(Br)cc12 [ABM309, 2-(5-Bromo-3-ethyl-1H-indol-2-yl)-5-((4-methoxybenzyl)thio)-1,3,4-oxadiazole]
melting point: 181 to 183 °C

Cc1c(-c2nnc(SCCc3ccccc3)o2)[nH]c2ccc(Cl)cc12 [ABM322, 2-(5-Chloro-3-methyl-1H-indol-2-yl)-5-(phenethylthio)-1,3,4-oxadiazole]
IC50 (cannabinoid CB1 receptor): 417 nM | melting point: 222 to 224 °C

CCc1c(-c2nnc(SCCCc3ccccc3)o2)[nH]c2ccc(Br)cc12 [ABM326, 2-(5-Bromo-3-ethyl-1H-indol-2-yl)-5-((3-phenylpropyl)thio)-1,3,4-oxadiazole]
melting point: 134 to 135 °C

COc1ccc(CSc2nnc(-c3[nH]c4ccc(Cl)cc4c3C)o2)cc1 [ABM301, 2-(5-Chloro-3-methyl-1H-indol-2-yl)-5-((4-methoxybenzyl)thio)-1,3,4-oxadiazole]
IC50 (cannabinoid CB1 receptor): 68 nM | melting point: 210 to 212 °C

CCc1c(-c2nnc(SCc3ccc(C)cc3)o2)[nH]c2ccc(Cl)cc12 [ABM332, 2-(5-Chloro-3-ethyl-1H-indol-2-yl)-5-((4-methylbenzyl)thio)-1,3,4-oxadiazole]
IC50 (cannabinoid CB1 receptor): 85 nM | melting point: 195 to 197 °C

Clc1ccc2[nH]c(-c3nnc(NCc4ccccc4)o3)cc2c1 [ABM314, N-Benzyl-5-(5-chloro-1H-indol-2-yl)-1,3,4-oxadiazol-2-amine]
IC50 (cannabinoid CB1 receptor): 105 nM | melting point: 245 to 247 °C

Cc1c(-c2nnc(SCc3ccc(F)cc3)o2)[nH]c2ccc(Cl)cc12 [ABM339, 2-(5-Chloro-3-methyl-1H-indol-2-yl)-5-((4-fluorobenzyl)thio)-1,3,4-oxadiazole]
IC50 (cannabinoid CB1 receptor): 270 nM | melting point: 210 to 212 °C

CCc1c(-c2nnc(SCCCc3ccccc3)o2)[nH]c2ccc(Cl)cc12 [ABM330, 2-(5-Chloro-3-ethyl-1H-indol-2-yl)-5-((3-phenylpropyl)thio)-1,3,4-oxadiazole]
melting point: 170 to 172 °C

c1ccc(CCSc2nnc(-c3cc4ccccc4[nH]3)o2)cc1 [ABM334, 2-(1H-Indol-2-yl)-5-(phenethylthio)-1,3,4-oxadiazole]
IC50 (cannabinoid CB1 receptor): 172 nM | melting point: 184 to 186 °C

CCc1c(-c2nnc(NCc3ccccc3)o2)[nH]c2ccc(Br)cc12 [ABM316, N-Benzyl-5-(5-bromo-3-ethyl-1H-indol-2-yl)-1,3,4-oxadiazol-2-amine]
IC50 (cannabinoid CB1 receptor): 12 nM | melting point: 218 to 220 °C

Cc1c(-c2nnc(SCCCc3ccccc3)o2)[nH]c2ccc(Cl)cc12 [ABM323, 2-(5-Chloro-3-methyl-1H-indol-2-yl)-5-((3-phenylpropyl)thio)-1,3,4-oxadiazole]
IC50 (cannabinoid CB1 receptor): 263 nM | melting point: 179 to 180 °C

CCc1c(-c2nnc(Nc3ccccc3)o2)[nH]c2ccc(Br)cc12 [ABM312, 5-(5-Bromo-3-ethyl-1H-indol-2-yl)-N-phenyl-1,3,4-oxadiazol-2-amine]
IC50 (cannabinoid CB1 receptor): 1 nM | melting point: 240 to 242 °C

Cc1c(-c2nnc(SCc3ccccc3)o2)[nH]c2ccc(Cl)cc12 [ABM321, 2-(Benzylthio)-5-(5-chloro-3-methyl-1H-indol-2-yl)-1,3,4-oxadiazole]
IC50 (cannabinoid CB1 receptor): 93 nM | melting point: 215 to 216 °C

CCc1c(-c2nnc(SCc3ccc(C)cc3)o2)[nH]c2ccc(Br)cc12 [ABM327, 2-(5-Bromo-3-ethyl-1H-indol-2-yl)-5-((4-methylbenzyl)thio)-1,3,4-oxadiazole]
IC50 (cannabinoid CB1 receptor): 67 nM | melting point: 201 to 203 °C

Cc1c(-c2nnc(Nc3ccccc3)o2)[nH]c2ccc(Cl)cc12 [ABM311, 5-(5-Chloro-3-methyl-1H-indol-2-yl)-N-phenyl-1,3,4-oxadiazol-2-amine]
IC50 (cannabinoid CB1 receptor): 2 nM | melting point: 268 to 270 °C

CCc1c(-c2nnc(SCc3ccccc3)o2)[nH]c2ccc(Br)cc12 [ABM305, 2-(Benzylthio)-5-(5-bromo-3-ethyl-1H-indol-2-yl)-1,3,4-oxadiazole]
IC50 (cannabinoid CB1 receptor): 30 nM | melting point: 183 to 185 °C

CCc1c(-c2nnc(NCCc3ccccc3)o2)[nH]c2ccc(Br)cc12 [ABM320, 5-(5-Bromo-3-ethyl-1H-indol-2-yl)-N-phenethyl-1,3,4-oxadiazol-2-amine]
IC50 (cannabinoid CB1 receptor): 1 nM | melting point: 170 to 172 °C

CCc1c(-c2nnc(NCCc3ccccc3)o2)[nH]c2ccc(Cl)cc12 [ABM317, 5-(5-Chloro-3-ethyl-1H-indol-2-yl)-N-phenethyl-1,3,4-oxadiazol-2-amine]
IC50 (cannabinoid CB1 receptor): 0.5 nM | melting point: 175 to 177 °C

CCc1c(-c2nnc(SCCc3ccccc3)o2)[nH]c2ccc(Br)cc12 [ABM325]
IC50 (cannabinoid CB1 receptor): 315 nM | melting point: 185 to 186 °C

Cc1c(-c2nnc(NCc3ccccc3)o2)[nH]c2ccc(Cl)cc12 [ABM315, N-Benzyl-5-(5-chloro-3-methyl-1H-indol-2-yl)-1,3,4-oxadiazol-2-amine]
IC50 (cannabinoid CB1 receptor): 7 nM | melting point: 220 to 222 °C

Fc1ccc(Nc2nnc(-c3cc4cc(Cl)ccc4[nH]3)o2)cc1 [ABM336, 5-(5-Chloro-1H-indol-2-yl)-N-(4-fluorophenyl)-1,3,4-oxadiazol-2-amine]
IC50 (cannabinoid CB1 receptor): 5 nM | melting point: 265 to 267 °C

Clc1ccc2[nH]c(-c3nnc(NCCc4ccccc4)o3)cc2c1 [ABM318, 5-(5-Chloro-1H-indol-2-yl)-N-phenethyl-1,3,4-oxadiazol-2-amine]
IC50 (cannabinoid CB1 receptor): 3 nM | melting point: 235 to 237 °C

c1ccc(CSc2nnc(-c3cc4ccccc4[nH]3)o2)cc1 [ABM333, 2-(Benzylthio)-5-(1H-indol-2-yl)-1,3,4-oxadiazole]
melting point: 178 to 180 °C
